Test results as given in ChEMBL document CHEMBL5260848, “Recent advancements in the development of bioactive pyrazoline derivatives” (Eur J Med Chem, 2020).
Converted amounts (≈) assume the structure as drawn.

Columns and labels:
[1] = tested on: Mycobacterium tuberculosis; type: functional; settings: time 5 day
[2] = tested on: Aspergillus niger; assay: Antifungal activity against Aspergillus niger incubated for 24 hrs by disc diffusion method; type: functional
[3] = tested on: Mycobacterium tuberculosis; type: functional; settings: time 5 day; remark: listed apart in the source
[4] = tested on: Aspergillus fumigatus; assay: Antifungal activity against Aspergillus fumigatus incubated for 24 hrs by disc diffusion method; type: functional
[5] = tested on: Mycobacterium tuberculosis; assay: microbe, parasite or virus in culture; settings: 120 h
[6] = tested on: Bacillus subtilis; assay: microbe, parasite or virus in culture; settings: 24 h
[7] = tested on: Escherichia coli; assay: Antibacterial activity against Escherichia coli incubated for 24 hrs by disc diffusion method; type: functional
[8] = tested on: Staphylococcus aureus; assay: microbe, parasite or virus in culture; settings: 24 h
[9] = tested on: Mycobacterium tuberculosis; type: functional; settings: time 5 day; remark: listed apart in the source
[10] = tested on: Pseudomonas aeruginosa; assay: microbe, parasite or virus in culture; settings: 24 h
[11] = tested on: Aspergillus flavus; assay: Antifungal activity against Aspergillus flavus incubated for 24 hrs by disc diffusion method; type: functional
[12] = tested on: Candida albicans; assay: microbe, parasite or virus in culture; settings: 24 h
[13] = tested on: Candida albicans; assay: Antifungal activity against Candida albicans assessed as fungal growth inhibition; type: functional
[14] = tested on: Escherichia coli; assay: Antimicrobial activity against Escherichia coli assessed as inhibition of bacterial growth; type: functional
[15] = tested on: Bacillus subtilis; assay: Antimicrobial activity against Bacillus subtilis; type: functional
[16] = tested on: Proteus vulgaris; assay: Antimicrobial activity against Proteus vulgaris assessed as inhibition of bacterial growth; type: functional
[17] = tested on: Aspergillus fumigatus; assay: Antifungal activity against Aspergillus fumigatus; type: functional
[18] = tested on: Aspergillus fumigatus; assay: Antifungal activity against Aspergillus fumigatus assessed as zone of inhibition; type: functional
[19] = tested on: Staphylococcus aureus; assay: Antimicrobial activity against Staphylococcus aureus assessed as inhibition of bacterial growth; type: functional
[20] = tested on: Candida albicans; assay: Antifungal activity against Candida albicans assessed as zone of inhibition; type: functional
[21] = tested on: Klebsiella pneumoniae; assay: Antimicrobial activity against Klebsiella pneumoniae; type: functional
[22] = tested on: Staphylococcus aureus; assay: microbe, parasite or virus in culture
[23] = tested on: Escherichia coli; assay: microbe, parasite or virus in culture
[24] = tested on: Staphylococcus aureus; assay: Potency index, ratio of ampicillin MIC to compound MIC for Staphylococcus aureus by agar dilution method; type: functional
[25] = tested on: Candida albicans; assay: Antifungal activity against Candida albicans by agar dilution method; type: functional
[26] = tested on: Pseudomonas aeruginosa; assay: Antibacterial activity against Pseudomonas aeruginosa by agar dilution method; type: functional
[27] = Antioxidant activity assessed as DPPH radical scavenging activity; type: functional
[28] = tested on: Bacillus subtilis; assay: Potency index, ratio of ampicillin MIC to compound MIC for Bacillus subtilis by agar dilution method; type: functional
[29] = tested on: Escherichia coli; assay: Antibacterial activity against Escherichia coli by agar dilution method; type: functional
[30] = tested on: Bacillus subtilis; assay: Antibacterial activity against Bacillus subtilis by agar dilution method; type: functional
[31] = tested on: Escherichia coli; assay: Potency index, ratio of ampicillin MIC to compound MIC for Escherichia coli by agar dilution method; type: functional
[32] = tested on: Aspergillus niger; assay: Antifungal activity against Aspergillus niger by agar dilution method; type: functional
[33] = tested on: Staphylococcus aureus; assay: Antibacterial activity against Staphylococcus aureus by agar dilution method; type: functional
[34] = tested on: Jurkat; assay: Cytotoxicity against human Jurkat T cells; type: functional, cell-based
[35] = Cytotoxicity against human PBMC cells; type: functional, cell-based
[36] = tested on: ASPC1; assay: Cytotoxicity against human ASPC1 cells; type: functional, cell-based
[37] = Inhibition of Bacillus subtilis DNA gyrase
[38] = tested on: Bacillus subtilis; assay: microbe, parasite or virus in culture
[39] = tested on: Staphylococcus aureus; assay: microbe, parasite or virus in culture; remark: listed apart in the source
[40] = tested on: Escherichia coli; assay: Antibacterial activity against Escherichia coli ATCC 25922 by plate dilution method; type: functional
[41] = tested on: Bacillus cereus; assay: Antibacterial activity against Bacillus cereus ATCC 9946 by plate dilution method; type: functional
[42] = tested on: Candida albicans; assay: Antifungal activity against Candida albicans ATCC 2091 by plate dilution method relative to control; type: functional
[43] = tested on: Bordetella bronchiseptica; assay: Antibacterial activity against Bordetella bronchiseptica ATCC 4617 by plate dilution method; type: functional
[44] = tested on: Bacillus subtilis; assay: Antibacterial activity against Bacillus subtilis ATCC 6633 by plate dilution method; type: functional
[45] = tested on: Penicillium citrinum; assay: Antifungal activity against Penicillium citrinum NCIM 768 by plate dilution method relative to control; type: functional
[46] = tested on: Proteus vulgaris; assay: Antibacterial activity against Proteus vulgaris ATCC 9920 by plate dilution method; type: functional
[47] = tested on: Staphylococcus epidermidis; assay: Antibacterial activity against Staphylococcus epidermidis ATCC 12228 by plate dilution method; type: functional
[48] = tested on: Klebsiella pneumoniae; assay: Antibacterial activity against Klebsiella pneumoniae ATCC 700603 by plate dilution method; type: functional
[49] = tested on: Aspergillus flavus; assay: Antifungal activity against Aspergillus flavus MTCC 277 by plate dilution method relative to control; type: functional
[50] = tested on: Staphylococcus aureus; assay: Antibacterial activity against Staphylococcus aureus ATCC 25923 by plate dilution method; type: functional
[51] = tested on: Pseudomonas aeruginosa; assay: Antibacterial activity against Pseudomonas aeruginosa ATCC 27853 by plate dilution method; type: functional
[52] = tested on: Monascus purpureus; assay: Antifungal activity against Monascus purpureus MTCC 369 by plate dilution method relative to control; type: functional
[53] = tested on: Aspergillus niger; assay: Antifungal activity against Aspergillus niger MTCC 281 by plate dilution method relative to control; type: functional
[54] = tested on: Enterococcus faecalis; assay: Antibacterial activity against Enterococcus faecalis ATCC 29212 by plate dilution method; type: functional

In the case of `O=C(NNS(=O)(=O)c1ccccc1)N1N=C(c2ccccc2)CC1c1ccccc1` (centres undefined), the Ratio [1] is reported as 7.81, the MIC [2] is reported as 25 µg/mL (≈ 59.5 µM) and the Ratio [3] is reported as 3.9. It also gave an MIC [4] of 25 µg/mL (≈ 59.5 µM), an MIC [5] of 0.8 µg/mL (≈ 1.9 µM) and an MIC [6] of 25 µg/mL (≈ 59.5 µM). For the same molecule, the MIC [7] was 25 µg/mL (≈ 59.5 µM), the MIC [8] was 25 µg/mL (≈ 59.5 µM) and the Ratio [9] was 3.9. The MIC [10] was 25 µg/mL (≈ 59.5 µM), the MIC [11] was 25 µg/mL (≈ 59.5 µM) and the MIC [12] was 25 µg/mL (≈ 59.5 µM).
Work on `Clc1ccc(C2CC(c3cccs3)=NN2c2nc(-c3ccccc3)cs2)c(Cl)c1` (centres undefined) yielded an MIC [13] of 62.5 µg/mL (≈ 137 µM), an MIC [14] of 9.77 µg/mL (≈ 21.4 µM) and an MIC [15] of 9.77 µg/mL (≈ 21.4 µM). The MIC [16] was 9.77 µg/mL (≈ 21.4 µM), the MIC [17] was 312 µg/mL (≈ 685 µM) and the “inhibition zone (IZ)” value [18] was 28 mm. For the same molecule, the MIC [19] was 9.77 µg/mL (≈ 21.4 µM) and the “inhibition zone (IZ)” value [20] was 23 mm.
For `CCOC(=O)C1N=NN(CC(=O)N2N=C(c3ccccc3)CC2c2cccs2)C1C(=O)OCC` (centres undefined), the MIC [21] was 15 µg/mL (≈ 31 µM), the MIC [22] was 3.9 µg/mL (≈ 8.07 µM) and the MIC [23] was 3.9 µg/mL (≈ 8.07 µM).
Molecule `COc1cccc2cc(/C=C/C(=O)c3cc(Br)ccc3O)c3nnnn3c12` has a Ratio [24] of 5, an MIC [25] of 25 µg/mL (≈ 58.8 µM) and an MIC [26] of 25 µg/mL (≈ 58.8 µM). It also gave an IC50 [27] of 22.4 µg/mL (≈ 52.7 µM), a Ratio [28] of 5 and an MIC [29] of 50 µg/mL (≈ 118 µM). It also gave an MIC [30] of 50 µg/mL (≈ 118 µM), a Ratio [31] of 2 and an MIC [32] of 25 µg/mL (≈ 58.8 µM). It also gave an MIC [33] of 50 µg/mL (≈ 118 µM).
For `Cc1ccc(-c2nnc(SCC(=O)N3N=C(c4cccs4)CC3c3ccc(Cl)cc3)o2)cc1` (centres undefined), the IC50 [34] was 90 µM, the IC50 [35] was 1 mM and the IC50 [36] was 16.8 µM.
`CC(=O)N1N=C(c2ccc(C)cc2)CC1c1cc(Cl)ccc1Oc1c([N+](=O)[O-])cc(C(F)(F)F)cc1[N+](=O)[O-]` (centres undefined) showed an IC50 [37] of 0.125 µg/mL (≈ 0.222 µM), an MIC [38] of 0.39 µg/mL (≈ 0.693 µM) and an MIC [39] of 0.39 µg/mL (≈ 0.693 µM).
Molecule `O=c1oc2ccc(F)cc2cc1-c1csc(N2N=C(c3ccc(F)cc3)CC2c2cc3ccccc3nc2Cl)n1` (centres undefined) has an MIC [40] of 50 µg/mL (≈ 87.6 µM), an MIC [41] of 50 µg/mL (≈ 87.6 µM) and an Activity [42] of 98.95%. The MIC [43] was 50 µg/mL (≈ 87.6 µM), the MIC [44] was 50 µg/mL (≈ 87.6 µM) and the Activity [45] was 91.42%. For the same molecule, the MIC [46] was 50 µg/mL (≈ 87.6 µM), the MIC [47] was 50 µg/mL (≈ 87.6 µM) and the MIC [48] was 50 µg/mL (≈ 87.6 µM). For the same molecule, the Activity [49] was 98%, the MIC [50] was 50 µg/mL (≈ 87.6 µM) and the MIC [51] was 50 µg/mL (≈ 87.6 µM). For the same molecule, the Activity [52] was 79.72%, the Activity [53] was 83.59% and the MIC [54] was 50 µg/mL (≈ 87.6 µM).
